The assay relates to SK-MEL-2 multi-cell spheroids, viability. Description: Anticancer human tumor SK-MEL-2 cell line growth inhibition [TAK].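 As to all read-outs here: spheroids exposed to drugs for seven days before readout.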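 As to viability, T/C: percent of DMSO vehicle control luminescence so 100% = untreated viability.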 The following applies: for viability, T/C: stronger effect = lower value. An excerpt:
Combinatorial screen of targeted agents with TAK-243 and ipatasertib in multi-cell type tumor spheroids
A high-throughput screen of multi-cell type tumor spheroids was designed to identify active combinations of targeted small molecules and TAK-243 or ipatasertib. Complex spheroids include a stromal component modeled by human endothelial cells (HUVEC) and fibroblasts modeled by human mesenchymal stem cells (MSCs). The concentration ranges selected for each drug and investigational agent were based upon clinically achievable concentrations if the clinical Cmax of the agent was known.
Compounds. The drugs and investigational agents: TAK-243 (785004), ipatasertib (767898), everolimus (733504), selumetinib (741078), bortezomib (756655), trametinib (758246), ixazomib (758254), vemurafenib (761431), dabrafenib (764134), sapanisertib (764658), alpelisib (765974), and copanlisib (816437), were obtained from the National Cancer Institute (NCI) Developmental Therapeutics Program Chemical Repository. The FDA-approved anticancer drug set is available from the NCI Developmental Therapeutics Program. […] The stock solutions were prepared in dimethyl sulfoxide (DMSO, Sigma-Aldrich, St. Louis, MO, cat. D2650) at 800-fold the tested concentration and stored at -70 degrees C prior to their use. All drugs and investigational agents were tested over a range starting from a high concentration at or near the clinical Cmax and decreasing in half-log increments. If the clinical Cmax for an agent had not been determined, the highest concentration tested was 10 microM.
NCI60 Cell Culture. NCI60 cell lines were obtained from the NCI Developmental Therapeutics Program Tumor Repository. For each lot of cells, the Repository performed Applied Biosystems AmpFLSTR Identifiler testing with PCR amplification to confirm consistency with the published Identifier STR profile for each cell line. Cells were kept in continuous culture for no more than 20 passages. The optimal seeding densities for each of the cell lines at each time point assessed were determined prior to performing the concentration response studies. Briefly, the NCI60 human tumor lines were grown as monolayers in RPMI 1640 medium supplemented with 10% FBS and 2 mmol/L L-glutamine.
An additional 2 lines were from the NCI60 cell line panel including melanomas, MALME-3M and SK-MEL-2. Pooled donor human umbilical vein endothelial cells (HUVEC, Lonza, cat. CC-2519) and human mesenchymal stem cells (hMSC, Lonza, cat. PT-2501) were purchased from Lonza (Walkersville, MD).
PDMR cell lines were grown in complete medium (DC medium): Dulbecco's modified Eagle's medium (DMEM)/F12 supplemented with 5% fetal bovine serum (FBS), 2 mM L-glutamine, 100 U/mL penicillin and 100 µg/ml streptomycin, 0.4 µg/ml hydrocortisone, 10 ng/ml epidermal growth factor (EGF) recombinant human protein, 24 µg/mL adenine, and 0.1 mg/mL primocin. During culture from frozen stock vials, PDMR cells were cultured in the same medium containing 10 µM Y-27632 (see Table 3). The PDCs were cultured in complete DMEM/F12 media without 10 microM Y-27632 dihydrochloride for at least two passages prior to the screen. The pooled donor HUVEC and hMSC were cultured in endothelial cell growth medium 2 (PromoCell, Heidelberg, Germany, cat. C-22011) and mesenchymal stem cell growth medium 2 (PromoCell, cat. C-28009), respectively. For all experiments, HUVEC and hMSC were used at passages </=5.
For the pre-screen, cell seeding densities were determined from a titration spanning the range from 5,000 to 313 cells per well. The mct-spheroids including 60% malignant cells, 25% HUVEC and 15% MSC dispensed as a mixture into U-bottom Ultra-Low Attachment 384-well plates (Corning, NY)
High-throughput Drug Combination Screening.
Prior to their inoculation into 384-well plates, malignant cells, HUVEC, and hMSC were removed from T flasks using TrypLE express (Thermo Fisher Scientific, cat. 12605036) and harvested by centrifugation for 5 min at 233 x g. […]

“And” between values parts separate entries of the source, which are not always exact repeats. Equal values may be shown once.

With `CC(=O)Nc1cccc(-n2c(=O)n(C3CC3)c(=O)c3c(Nc4ccc(I)cc4F)n(C)c(=O)c(C)c32)c1`, the viability, T/C (compound 94.9 pM) was 91% and 88.6%; the viability, T/C (compound 0.0003 µM) was 40.3% and 35.3%; the viability, T/C (compound 0.000949 µM) was 17.9% and 15.7%; the viability, T/C (compound 0.003 µM) was 6.38% and 5.17%; the viability, T/C (compound 0.00949 µM) is 3.87% and 4.14%; the viability, T/C (compound 0.03 µM) is 2.42% and 3.1%. Moreover, under “curve of compound”, the IC50 is 0.242 nM and 0.22 nM.

For the molecule `CC(C)(C)c1nc(-c2cccc(NS(=O)(=O)c3c(F)cccc3F)c2F)c(-c2ccnc(N)n2)s1`, the viability, T/C reads like this: (compound 0.0316 µM) 137% and 126%; (compound 0.1 µM) 126% and 122%; (compound 0.316 µM) 82.3% and 76.3%; (compound 1 µM) 28.8% and 32%; (compound 3.16 µM) 13.3% and 16.8%; (compound 10 µM) 18.9% and 22.2%. In addition, the IC50 (curve of compound) is 631 nM and 615 nM.

Take `CC(C)CC(NC(=O)C(Cc1ccccc1)NC(=O)c1cnccn1)B(O)O` (stereo unspecified): the viability, T/C by setting is: (compound 31.6 pM) 117% and 109%; (compound 0.0001 µM) 96.5% and 94.3%; (compound 0.000316 µM) 101% and 98.5%; (compound 0.001 µM) 113% and 109%; (compound 0.00316 µM) 114% and 110%; (compound 0.01 µM) 88.5% and 99.6%. Further, the IC50 (curve of compound) is > 10 nM.

On to `CC(C)CC(NC(=O)CNC(=O)c1cc(Cl)ccc1Cl)B1OC(=O)CC(CC(=O)O)(C(=O)O)O1` (stereo unspecified), for which the viability, T/C is, setting by setting: (compound 0.000316 µM) 110% and 95.1%; (compound 0.001 µM) 94.6% and 97.2%; (compound 0.00316 µM) 98% and 93.9%; (compound 0.01 µM) 79.3% and 75.7%; (compound 0.0316 µM) 24.6% and 26%; (compound 0.1 µM) 6.45% and 4.25%. Where the note is “curve of compound”, the IC50 is 18.5 nM and 18.1 nM.

Take `CC(C)NCC(C(=O)N1CCN(c2ncnc3c2C(C)CC3O)CC1)c1ccc(Cl)cc1` (stereo unspecified): the IC50 (compound alone, run of 02/20/2020) is > 30000 nM.

Take `CC(C)n1nc(-c2ccc3oc(N)nc3c2)c2c(N)ncnc21`: the viability, T/C was 109% and 105% (compound 0.000316 µM); 99.8% and 100% (compound 0.001 µM); 88.6% and 89.8% (compound 0.00316 µM); 86.9% and 76% (compound 0.01 µM); 52.2% and 55.5% (compound 0.0316 µM); 29.2% and 31.2% (compound 0.1 µM). For the same molecule, for the setting “curve of compound”, the IC50 was 41 nM and 41.1 nM.

For `CCCS(=O)(=O)Nc1ccc(F)c(C(=O)c2c[nH]c3ncc(-c4ccc(Cl)cc4)cc23)c1F`, the viability, T/C (compound 0.316 µM) was 105% and 130%; the viability, T/C (compound 1 µM) was 102% and 129%; the viability, T/C (compound 3.16 µM) is 103% and 113%; the viability, T/C (compound 10 µM) is 83% and 41.8%; the viability, T/C (compound 31.6 µM) is 117% and 58.2%; the viability, T/C (compound 100 µM) is 106% and 71.2%. Also, the IC50 (curve of compound) was > 100000 nM.

As for `COC1CC2CCC(C)C(O)(O2)C(=O)C(=O)N2CCCCC2C(=O)OC(C(C)CC2CCC(OCCO)C(OC)C2)CC(=O)C(C)C=C(C)C(O)C(OC)C(=O)C(C)CC(C)C=CC=CC=C1C` (stereo unspecified), the viability, T/C (compound 0.000316 µM) is 85% and 118%; the viability, T/C (compound 0.001 µM) was 66.2% and 89%; the viability, T/C (compound 0.00316 µM) was 57.4% and 74.4%; the viability, T/C (compound 0.01 µM) was 55.8% and 73.2%; the viability, T/C (compound 0.0316 µM) was 52.8% and 58.8%; the viability, T/C (compound 0.1 µM) was 47.7% and 69.9%. Besides, the IC50 (curve of compound) was > 100 nM.

On to `COc1c(OCCCN2CCOCC2)ccc2c3n(c(=NC(=O)c4cnc(N)nc4)nc12)CCN3`, for which the viability, T/C reads like this: (compound 0.00316 µM) 93.1% and 92.3%; (compound 0.01 µM) 71.8% and 74%; (compound 0.0316 µM) 60.8% and 56.7%; (compound 0.1 µM) 44.8% and 46.6%; (compound 0.316 µM) 31.1% and 30.9%; (compound 1 µM) 20.5% and 23.6%. In addition, the IC50 (curve of compound) was 63.9 nM and 61.4 nM.

As to `Cc1nc(NC(=O)N2CCCC2C(N)=O)sc1-c1ccnc(C(C)(C)C(F)(F)F)c1` (stereo unspecified), the viability, T/C runs as follows: (compound 0.0316 µM) 100% and 105%; (compound 0.1 µM) 91.2% and 91.5%; (compound 0.316 µM) 84.4% and 85.5%; (compound 1 µM) 80.7% and 83.9%; (compound 3.16 µM) 68.8% and 66.5%; (compound 10 µM) 55.6% and 54.2%. In addition, the IC50 (curve of compound) was > 10000 nM.

For the molecule `Cn1cnc2c(F)c(Nc3ccc(Br)cc3Cl)c(C(=O)NOCCO)cc21`, the viability, T/C (compound 0.00949 µM) was 46.8% and 40.8%; the viability, T/C (compound 0.03 µM) was 34.6% and 17.4%; the viability, T/C (compound 0.0949 µM) was 19.7% and 9.79%; the viability, T/C (compound 0.3 µM) is 21.9% and 7.35%; the viability, T/C (compound 0.949 µM) is 14.6% and 5.25%; the viability, T/C (compound 3 µM) was 14.1% and 2.56%. Besides, for the setting “curve of compound”, the IC50 is < 9.49 nM.

These data come from PubChem BioAssay AID2060344 (Molecular Pharmacology Branch, DTP, NCI, 2025).
